In PubChem BioAssay AID2060894 (Molecular Pharmacology Branch, DTP, NCI, 2025):
pIC50: −log10 of the molar value.

Test system: K12877-001-R-J1-PDC complex spheroid viability
Experiment: Anticancer human tumor K12877-001-R-J1-PDC patient-derived lung adenocarcinoma cell line growth inhibition [RAS]
Conditions: for pIC50: curve of first compound; for viability, T/C: stronger effect = lower value; active = viability on the fitted dose curve at most 10% of control; inactive = the rest
From the text: RAS pathway inhibitors in Combinations in Complex Spheroids
A high-throughput screen of multi-cell type tumor spheroids was designed to identify active combinations of RAS pathway inhibitors and targeted small molecules. Complex spheroids include a stromal component modeled by human endothelial cells (HUVEC) and fibroblasts modeled by human mesenchymal stem cells (MSCs). The concentration ranges selected for each drug and investigational agent were based upon clinically achievable concentrations if the clinical Cmax of the agent was known.
Compounds. The drugs and investigational agents: abemaciclib (NSC768073), cobimetinib (NSC768068), divarasib (GDC6063, NSC841802), docetaxel (NSC628503), GDC-1971 (RLY-1971, NSC841576), gemcitabine (NSC613327), inavolisib (NSC800729), ipatasertib (NSC767898), KB-0742 (NSC834161), MRTX-1133 (NSC836407), osimertinib (NSC779217), RMC-4630 (NSC839698), RMC-6236 (NSC851965), RMC-6291 (NSC852671), Ro-3306 (NSC812927), sapanisertib (NSC764658), SN-38 (NSC673596), staurosporine (NSC755774), SY5609 (NSC837396), and tovorafenib (DAY101, NSC766906), were obtained from the National Cancer Institute (NCI) Developmental Therapeutics Program Chemical Repository. The FDA-approved anticancer drug set is available from the NCI Developmental Therapeutics Program. […] The stock solutions were prepared in dimethyl sulfoxide (DMSO, Sigma-Aldrich, St. Louis, MO, cat. D2650) at 800-fold the tested concentration and stored at -70 degrees C prior to their use. All drugs and investigational agents were tested over a range starting from a high concentration at or near the clinical Cmax and decreasing in half-log increments. If the clinical Cmax for an agent had not been determined, the highest concentration tested was 10 microM.
Cell Culture. All cells were maintained in an incubator at 37 degrees C and 5% CO2 with 95% humidity. The PDC lines were cultured according to standard operating procedures established by the NCI PDMR. All PDCs were thawed and cultured in Matrigel-coated flasks prepared with a working solution of 1X Ham's F-12 nutrient mix, without supplementation (Invitrogen, Waltham, MA, cat. 11765054), 100 U/mL penicillin-streptomycin (Invitrogen, cat. 15140122), and 2.5% Matrigel (Corning Inc., Corning, NY, cat. 354248) for the first three passages. The 362531-283-R-J2-PDC and 782815-120-R-J1-PDC lines were cultured in 6C/Colon 1B media, which includes advanced DMEM/F-12 (Thermo Fisher Scientific, cat. 12634028), 10 mM HEPES (Thermo Fisher Scientific, cat. 15630080), 1X GlutaMAX supplement (Thermo Fisher Scientific, cat. 35050061), 0.1 mg/mL primocin (InvivoGen, San Diego, CA, cat. ant-pm-2), 10% defined fetal bovine serum, heat inactivated (HyClone Laboratories Inc., Logan, UT, cat. SH30070.03HI), 50% L-WRN conditioned media (ATCC, cat. CRL-3276), 1.25 mM N-Acetyl-L-cysteine (Sigma-Aldrich, cat. A9165), 10 mM nicotinamide (Sigma-Aldrich, cat. N0636), 1X B-27 supplement (Thermo Fisher Scientific, cat. 17504044), 1X N-2 supplement (Thermo Fisher Scientific, cat. 17502048), 50 ng/mL human EGF (Thermo Fisher Scientific, cat. PHG0311), and 10 microM Y-27632 dihydrochloride (Tocris Bioscience, cat. 1254). The K12877-001-R-J1-PDC line was cultured in 6I media, which includes all 6C/Colon 1B media plus 10 ng/mL human FGF-10 (PeproTech, cat. 100-26), 1 ng/mL human FGF-2 (PeproTech, cat. 100-18B), 1 µM prostaglandin E2 (Tocris Bioscience, cat. 2296), […] hydrocortisone (Sigma-Aldrich, cat. H4001), and […] bovine insulin (Sigma-Aldrich, cat. I6634). The K86415-001-R-J1-PDC line was cultured in 6D media, which includes all 6C/Colon 1B media components minus the L-WRN conditioned media. The 485176-168-R4-J1-PDC was cultured in PANC media, which includes all 6C/Colon 1B media plus 100 ng/mL human FGF-10 (PeproTech, cat. 100-26), 500 nM SB-431542 (Selleckchem, cat. S1067), and 10 nM gastrin (Tocris Bioscience, cat. 3006). […]

[1] = second compound 0.000949 µM, first compound 0.0316 µM
[2] = second compound 0.000949 µM, first compound 0.1 µM
[3] = second compound 0.000949 µM, first compound 0.316 µM
[4] = second compound 0.000949 µM, first compound 1 µM
[5] = second compound 0.000949 µM, first compound 3.16 µM
[6] = second compound 0.000949 µM, first compound 10 µM
[7] = second compound 0.003 µM, first compound 0.0316 µM
[8] = second compound 0.003 µM, first compound 0.1 µM
[9] = second compound 0.003 µM, first compound 0.316 µM
[10] = second compound 0.003 µM, first compound 1 µM
[11] = second compound 0.003 µM, first compound 3.16 µM
[12] = second compound 0.003 µM, first compound 10 µM
[13] = second compound 0.00949 µM, first compound 0.0316 µM
[14] = second compound 0.00949 µM, first compound 0.1 µM
[15] = second compound 0.00949 µM, first compound 0.316 µM
[16] = second compound 0.00949 µM, first compound 1 µM
[17] = second compound 0.00949 µM, first compound 3.16 µM
[18] = second compound 0.00949 µM, first compound 10 µM
[19] = second compound 0.03 µM, first compound 0.0316 µM
[20] = second compound 0.03 µM, first compound 0.1 µM
[21] = second compound 0.03 µM, first compound 0.316 µM
[22] = second compound 0.03 µM, first compound 1 µM
[23] = second compound 0.03 µM, first compound 3.16 µM
[24] = second compound 0.03 µM, first compound 10 µM
[25] = second compound 0.0949 µM, first compound 0.0316 µM
[26] = second compound 0.0949 µM, first compound 0.1 µM
[27] = second compound 0.0949 µM, first compound 0.316 µM
[28] = second compound 0.0949 µM, first compound 1 µM
[29] = second compound 0.0949 µM, first compound 3.16 µM
[30] = second compound 0.0949 µM, first compound 10 µM
[31] = second compound 0.3 µM, first compound 0.0316 µM
[32] = second compound 0.3 µM, first compound 0.1 µM
[33] = second compound 0.3 µM, first compound 0.316 µM
[34] = second compound 0.3 µM, first compound 1 µM
[35] = second compound 0.3 µM, first compound 3.16 µM
[36] = second compound 0.3 µM, first compound 10 µM
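Note: spheroids exposed to agents for one week before readout.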

CC(C)NCC(C(=O)N1CCN(c2ncnc3c2C(C)CC3O)CC1)c1ccc(Cl)cc1 (centres undefined) + CCn1c(-c2cc(N3CCN(C)CC3)cnc2C(C)OC)c2c3cc(ccc31)-c1csc(n1)CC(NC(=O)C1CC1C)C(=O)N1CCCC(N1)C(=O)OCC(C)(C)C2
5.11: pIC50 (second compound 0.000949 µM)
inactive: viability, T/C [1] 91.9% | viability, T/C [2] 90.3% | viability, T/C [3] 80.9% | viability, T/C [4] 104% | viability, T/C [5] 69.3% | viability, T/C [6] 44.3% | viability, T/C [7] 73.9% | viability, T/C [8] 82.8% | viability, T/C [9] 78.3% | viability, T/C [10] 88% | viability, T/C [11] 58% | viability, T/C [12] 29.3% | viability, T/C [13] 60.9% | viability, T/C [14] 74.3% | viability, T/C [15] 74.4% | viability, T/C [16] 74.9% | viability, T/C [17] 33.4% | viability, T/C [18] 19.6% | viability, T/C [19] 101% | viability, T/C [20] 103% | viability, T/C [21] 94.2% | viability, T/C [22] 52.9% | viability, T/C [23] 28.4% | viability, T/C [24] 17.1% | viability, T/C [25] 106% | viability, T/C [26] 104% | viability, T/C [27] 75.8% | viability, T/C [28] 39.5% | viability, T/C [29] 18.8% | viability, T/C [30] 12.7% | viability, T/C [31] 101% | viability, T/C [32] 78.6% | viability, T/C [33] 55% | viability, T/C [34] 27.2% | viability, T/C [35] 17.1% | viability, T/C [36] 10.9%
5.92: pIC50 (second compound 0.03 µM)
5.36: pIC50 (second compound 0.003 µM)
6.14: pIC50 (second compound 0.0949 µM)
6.44: pIC50 (second compound 0.3 µM)
5.72: pIC50 (second compound 0.00949 µM)

C[C@@H](NC(=O)c1ncnc(N)c1Cl)c1ncc(C(=O)Nc2cc(C(F)(F)F)c(Cl)cn2)s1 + CCn1c(-c2cccnc2C(C)OC)c2c3cc(ccc31)N1CCOC(CC(NC(=O)C(C(C)C)N(C)C(=O)C3(F)CCN(C(=O)C#CC(C)(C)N(C)C)CC3)C(=O)N3CCCC(N3)C(=O)OCC(C)(C)C2)C1
< 5.00: pIC50 (second compound 0.000949 µM) | pIC50 (second compound 0.003 µM) | pIC50 (second compound 0.00949 µM) | pIC50 (second compound 0.03 µM) | pIC50 (second compound 0.0949 µM) | pIC50 (second compound 0.3 µM)
inactive: viability, T/C [1] 84.5% | viability, T/C [2] 84.7% | viability, T/C [3] 77.3% | viability, T/C [4] 85.3% | viability, T/C [5] 74.4% | viability, T/C [6] 82.7% | viability, T/C [7] 80.2% | viability, T/C [8] 79.2% | viability, T/C [9] 72.6% | viability, T/C [10] 82% | viability, T/C [11] 91.2% | viability, T/C [12] 76.8% | viability, T/C [13] 84.3% | viability, T/C [14] 74.9% | viability, T/C [15] 72% | viability, T/C [16] 73.4% | viability, T/C [17] 81.3% | viability, T/C [18] 78.8% | viability, T/C [19] 80.3% | viability, T/C [20] 81.1% | viability, T/C [21] 71.3% | viability, T/C [22] 88.2% | viability, T/C [23] 89.9% | viability, T/C [24] 87.5% | viability, T/C [25] 79.5% | viability, T/C [26] 77.8% | viability, T/C [27] 78.4% | viability, T/C [28] 75.3% | viability, T/C [29] 89.7% | viability, T/C [30] 72% | viability, T/C [31] 72% | viability, T/C [32] 71.7% | viability, T/C [33] 64.3% | viability, T/C [34] 69.8% | viability, T/C [35] 69.3% | viability, T/C [36] 52.9%
